Measurements from ChEMBL document CHEMBL4390639, “Design, Synthesis, and Biological Evaluation of Novel Allosteric Protein Disulfide Isomerase Inhibitors” (J Med Chem, 2019).
The source made the active and inactive calls. The rule behind the calls is not given here.

Molecular target: Protein disulfide-isomerase (Homo sapiens, UniProt P07237)
Assay: Inhibition of recombinant human N-terminal His-tagged PDI expressed in Escherichia coli BL21 (DE3) pLysS assessed as reduction in enzyme-mediated bovine insulin aggregation

Compound | IC50 | inhibition
COC(=O)c1cccc(/C=C/C(=O)c2ccc(NS(=O)(=O)c3ccc([N+](=O)[O-])cc3)cc2)c1 | > 100 µM | –
O=C(/C=C/c1cccc(C(F)(F)F)c1)c1ccc(O)cc1 | 1.56 µM | –
COc1ccc(C(=O)/C=C/c2cccc(C(=O)O)c2)cc1O | > 100 µM | –
COC(=O)c1cccc(/C=C/C(=O)c2ccc(OC)c(O)c2)c1 | 47.8 µM | –
N#Cc1cccc(/C=C/C(=O)c2ccc(F)cc2O)c1 | 2.37 µM | –
N#Cc1cccc(/C=C/C(=O)c2ccc(Br)cc2)c1 | 1.66 µM | –
O=C(O)c1cccc(/C=C/C(=O)c2cccc(O)c2)c1 | 10.2 µM | –
O=C(/C=C/c1ccccc1O)c1ccccc1O | – | inactive
O=C(/C=C/c1ccc(C(F)(F)F)cc1)c1ccc(O)cc1 | 2.56 µM | –
O=C(/C=C/c1cccc(O)c1)c1ccc(OC(=O)c2cccs2)cc1 | 1.75 µM | –
COc1ccc(/C=C/C(=O)c2ccc(NC(=O)c3cccs3)cc2)cc1 | > 500 µM | –
CC1(C)OB(c2ccc(/C=C/C(=O)c3ccccc3)cc2)OC1(C)C | 2.2 µM | –
COc1cc(C(=O)/C=C/c2cccc(C#N)c2)ccc1O | 2.72 µM | –
Nc1ccc(C(=O)/C=C/c2cccc(C(=O)O)c2)cc1 | > 100 µM | –
N#Cc1cccc(/C=C/C(=O)c2ccc(Cl)c(F)c2)c1 | > 500 µM | –
O=C(/C=C/c1cccc(O)c1)c1ccccc1O | – | inactive
O=C(/C=C/c1cccc(C(F)(F)F)c1)c1cnccn1 | 9.57 µM | –
N#Cc1ccc(/C=C/C(=O)c2ccc(F)c(O)c2)cc1 | 1.83 µM | –
N#Cc1cccc(/C=C/C(=O)c2ccc(N3CCOCC3)cc2)c1 | > 500 µM | –
O=C(/C=C/c1cccc(O)c1)c1ccc(NS(=O)(=O)c2cccs2)cc1 | 11.1 µM | –

Compound | IC50 | inhibition
COc1ccc(C(=O)/C=C/c2cccc(C#N)c2)cc1OC | > 100 µM | –
N#Cc1cccc(/C=C/C(=O)c2cccc(O)c2)c1 | 1.87 µM | –
N#Cc1cccc(/C=C/C(=O)c2ccc(O)c(C(F)(F)F)c2)c1 | 2 µM | –
N#Cc1ccc(/C=C/C(=O)c2ccc(F)cc2O)cc1 | 1.8 µM | –
N#Cc1cccc(/C=C/C(=O)c2ccc(NS(=O)(=O)c3ccc([N+](=O)[O-])cc3)cc2)c1 | 8.51 µM | –
O=C(/C=C/c1ccccc1C(F)(F)F)c1ccc(O)cc1 | 1.67 µM | –
O=C(O)c1cccc(/C=C/C(=O)c2ccc(N3CCOCC3)cc2)c1 | > 100 µM | –
N#Cc1cccc(/C=C/C(=O)c2ccc(N)cc2)c1 | > 500 µM | –
COc1cccc(C(=O)/C=C/c2cccc(C#N)c2)c1 | 8.13 µM | –
O=C(O)c1cccc(/C=C/C(=O)c2ccc(NS(=O)(=O)c3ccc([N+](=O)[O-])cc3)cc2)c1 | 4 µM | –
COc1ccc(/C=C/C(=O)c2ccc(O)cc2)cc1 | 1.74 µM | –
COc1ccc(C(=O)/C=C/c2cccc(C#N)c2)cc1O | 10.9 µM | –
O=C(O)c1cccc(/C=C/C(=O)c2ccc(O)c(F)c2)c1 | 9.1 µM | –
O=C(/C=C/c1ccc(O)cc1)c1ccccc1O | – | inactive
N#Cc1cccc(/C=C/C(=O)c2ccc(N3CCCCC3)cc2)c1 | > 500 µM | –
CCCN(CCC)S(=O)(=O)c1ccc(C(=O)/C=C/c2cccc(C(=O)OC)c2)cc1 | > 100 µM | –
O=C(/C=C/c1cccc(O)c1)c1ccc(NC(=O)c2cccs2)cc1 | 5.74 µM | –
O=C(O)c1cccc(/C=C/C(=O)c2ccc(O)c(C(F)(F)F)c2)c1 | 4.09 µM | –
CCCCN(CCCC)S(=O)(=O)c1ccc(C(=O)/C=C/c2cccc(C(=O)OC)c2)cc1 | > 100 µM | –
